Reference: the supplement of paper PMC11208160

assay: recombinant UMI read abundance after kanamycin selection (control-corrected) (log10(CPM+1)); higher = more efficient recombination; extreme values may be limits of the assay; sequences stand for … in AGTGCAGAGAAAATCGGCCAGTTTTCTCTGCCTGCAGTCCGCATGCCGTGGGACCCCTTGGGTTCTAACCTGTTGCCTAGATTTATGCAGCGGACTGCCTTTCTCCCAAAGTGATAAACCGG…AGGTTGGTTTCACT; site = the 11-nt donor
Summary of the method: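 Counts of recombinant UMIs were reported as log10(CPM+1). Before that, they were converted to CPM, averaged over replicates and scaled using control-derived factors. They came from PCR across the donor–target junction after Escherichia coli carrying the pair library and target plasmid was plated on IPTG (0.07 mM) plus kanamycin, or unselected, in two replicates each.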
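Note: IS621 bridge recombinase in Escherichia coli cells against a fixed T5 target plasmid.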

Row | Sequence | recombinant UMI read abundance (log10)
1 | CGGACATCATGGACCGGTTTTCCCGGTAATCCGTATTTGAT (site CGGACATCTAG) | 0
2 | CGGACATCATGGACCGGTTTTCCCGGTAATCCGTATTTGAT (site CGGACATCTAT) | 1.84
3 | CGGACATCATGGACCGGTTTTCCCGGTAATCCGTATTTGCC (site CGGACATCTAG) | 0.305
4 | CGGACATCATGGACCGGTTTTCCCGGTAATCCGTATTTGCC (site CGGACATCTCG) | 0.00908
5 | CGGACATCATGGACCGGTTTTCCCGGTAATCCGTATTTGCC (site CGGACATCTGG) | 2.66
6 | CGGACATCATGGACCGGTTTTCCCGGTAATCCGTATTTGCC (site CGGACATCTTG) | 0
7 | CGGACATCATGGACCGGTTTTCCCGGTAATCCGTATTTGCT (site AGGACATCTAG) | 0.695
8 | CGGACATCATGGACCGGTTTTCCCGGTAATCCGTATTTGCT (site CAGACATCTAG) | 1.53
9 | CGGACATCATGGACCGGTTTTCCCGGTAATCCGTATTTGCT (site CCGACATCTAG) | 0.954
10 | CGGACATCATGGACCGGTTTTCCCGGTAATCCGTATTTGCT (site CGAACATCTAG) | 1.51
11 | CGGACATCATGGACCGGTTTTCCCGGTAATCCGTATTTGCT (site CGCACATCTAG) | 0
12 | CGGACATCATGGACCGGTTTTCCCGGTAATCCGTATTTGCT (site CGGAAATCTAG) | 0
13 | CGGACATCATGGACCGGTTTTCCCGGTAATCCGTATTTGCT (site CGGACAACTAG) | 0.552
14 | CGGACATCATGGACCGGTTTTCCCGGTAATCCGTATTTGCT (site CGGACACCTAG) | 0
15 | CGGACATCATGGACCGGTTTTCCCGGTAATCCGTATTTGCT (site CGGACAGCTAG) | 0.00346
16 | CGGACATCATGGACCGGTTTTCCCGGTAATCCGTATTTGCT (site CGGACATCTAA) | 0
17 | CGGACATCATGGACCGGTTTTCCCGGTAATCCGTATTTGCT (site CGGACATCTAC) | 0
18 | CGGACATCATGGACCGGTTTTCCCGGTAATCCGTATTTGCT (site CGGACATCTAG) | 2.42
19 | CGGACATCATGGACCGGTTTTCCCGGTAATCCGTATTTGCT (site CGGACATCTAT) | 1.21
20 | CGGACATCATGGACCGGTTTTCCCGGTAATCCGTATTTGCT (site CGGACATCTCG) | 0.0134
21 | CGGACATCATGGACCGGTTTTCCCGGTAATCCGTATTTGCT (site CGGACATCTGG) | 0.0128
22 | CGGACATCATGGACCGGTTTTCCCGGTAATCCGTATTTGCT (site CGGACATCTTG) | 0.756
23 | CGGACATCATGGACCGGTTTTCCCGGTAATCCGTATTTGCT (site CGGACCTCTAG) | 0.303

Row | Sequence | recombinant UMI read abundance (log10)
24 | CGGACATCATGGACCGGTTTTCCCGGTAATCCGTATTTGCT (site CGGACGTCTAG) | 0
25 | CGGACATCATGGACCGGTTTTCCCGGTAATCCGTATTTGCT (site CGGACTTCTAG) | 0.255
26 | CGGACATCATGGACCGGTTTTCCCGGTAATCCGTATTTGCT (site CGGAGATCTAG) | 0
27 | CGGACATCATGGACCGGTTTTCCCGGTAATCCGTATTTGCT (site CGGATATCTAG) | 1.9
28 | CGGACATCATGGACCGGTTTTCCCGGTAATCCGTATTTGCT (site CGGCCATCTAG) | 0.0134
29 | CGGACATCATGGACCGGTTTTCCCGGTAATCCGTATTTGCT (site CGGGCATCTAG) | 0
30 | CGGACATCATGGACCGGTTTTCCCGGTAATCCGTATTTGCT (site CGGTCATCTAG) | 0.746
31 | CGGACATCATGGACCGGTTTTCCCGGTAATCCGTATTTGCT (site CGTACATCTAG) | 1.54
32 | CGGACATCATGGACCGGTTTTCCCGGTAATCCGTATTTGCT (site CTGACATCTAG) | 1.34
33 | CGGACATCATGGACCGGTTTTCCCGGTAATCCGTATTTGCT (site GGGACATCTAG) | 0
34 | CGGACATCATGGACCGGTTTTCCCGGTAATCCGTATTTGCT (site TGGACATCTAG) | 0.773
35 | CGGACGACATGGACCGGTTTTCCCGGTAATCCGTATTTGGT (site CGGACGACTAC) | 1.25
36 | CGGACTGCATGGACCGGTTTTCCCGGTAATCCGTATTTGTT (site CGGAATCCTAA) | 0
37 | CGGACTGCATGGACCGGTTTTCCCGGTAATCCGTATTTGTT (site CGGACTGCTAA) | 2.12
38 | CGGACTTCATGGACCGGTTTTCCCGGTAATCCGTATTTGCT (site CGGACATCTAG) | 0.905
39 | CGGACTTCATGGACCGGTTTTCCCGGTAATCCGTATTTGCT (site CGGACCTCTAG) | 1.61
40 | CGGACTTCATGGACCGGTTTTCCCGGTAATCCGTATTTGCT (site CGGACGTCTAG) | 0
41 | CGGACTTCATGGACCGGTTTTCCCGGTAATCCGTATTTGCT (site CGGACTTCTAG) | 2.17
42 | CGGAGTACATGGACCGGTTTTCCCGGTAATCCGTATTTGTT (site CGGAATCCTAA) | 0
43 | CGGAGTACATGGACCGGTTTTCCCGGTAATCCGTATTTGTT (site CGGAGTACTAA) | 2.14
44 | CGGAGTCCATGGACCGGTTTTCCCGGTAATCCGTATTTGAT (site CGGAATCCTAA) | 0.0131
45 | CGGAGTCCATGGACCGGTTTTCCCGGTAATCCGTATTTGAT (site CGGAGTCCTAT) | 1.98
46 | CGGATATCATGGACCGGTTTTCCCGGTAATCCGTATTTGCT (site CGGAAATCTAG) | 0

Row | Sequence | recombinant UMI read abundance (log10)
47 | CGGATATCATGGACCGGTTTTCCCGGTAATCCGTATTTGCT (site CGGACATCTAG) | 0
48 | CGGATATCATGGACCGGTTTTCCCGGTAATCCGTATTTGCT (site CGGAGATCTAG) | 0
49 | CGGATATCATGGACCGGTTTTCCCGGTAATCCGTATTTGCT (site CGGATATCTAG) | 1.51
50 | CGGATGTCATGGACCGGTTTTCCCGGTAATCCGTATTTGTG (site CGGATGTCTCA) | 2.74
51 | CGGATTCCATGGACCGGTTTTCCCGGTAATCCGTATTTGTT (site CGGAATCCTAA) | 0.00458
52 | CGGATTCCATGGACCGGTTTTCCCGGTAATCCGTATTTGTT (site CGGACTCCTAA) | 0.0161
53 | CGGATTCCATGGACCGGTTTTCCCGGTAATCCGTATTTGTT (site CGGAGTCCTAA) | 0.0137
54 | CGGATTCCATGGACCGGTTTTCCCGGTAATCCGTATTTGTT (site CGGATTCCTAA) | 0.599
55 | CGGCAGGCATGGACCGGTTTTCCCGGTAATCCGTATTTGAT (site CGGCAGGCTAT) | 2.21
56 | CGGCATCCATGGACCGGTTTTCCCGGTAATCCGTATTTGGT (site CGGAATCCTAA) | 0
57 | CGGCATCCATGGACCGGTTTTCCCGGTAATCCGTATTTGGT (site CGGCATCCTAC) | 0.00636
58 | CGGCATCCATGGACCGGTTTTCCCGGTAATCCGTATTTGTT (site CGGAATCCTAA) | 0
59 | CGGCATCCATGGACCGGTTTTCCCGGTAATCCGTATTTGTT (site CGGCATCCTAA) | 0.467
60 | CGGCATCCATGGACCGGTTTTCCCGGTAATCCGTATTTGTT (site CGGGATCCTAA) | 0.0034
61 | CGGCATCCATGGACCGGTTTTCCCGGTAATCCGTATTTGTT (site CGGTATCCTAA) | 0.0136
62 | CGGCCAACATGGACCGGTTTTCCCGGTAATCCGTATTTGTC (site CGGCCAACTGA) | 1.56
63 | CGGCGCTCATGGACCGGTTTTCCCGGTAATCCGTATTTGAT (site CGGCGCTCTAT) | 2.65
64 | CGGCGTACATGGACCGGTTTTCCCGGTAATCCGTATTTGCT (site CGACGTACTAG) | 1.63
65 | CGGCGTACATGGACCGGTTTTCCCGGTAATCCGTATTTGCT (site CGCCGTACTAG) | 0.201
66 | CGGCGTACATGGACCGGTTTTCCCGGTAATCCGTATTTGCT (site CGGCGTACTAG) | 2.38
67 | CGGCGTACATGGACCGGTTTTCCCGGTAATCCGTATTTGCT (site CGTCGTACTAG) | 0
68 | CGGCGTACATGGACCGGTTTTCCCGGTAATCCGTATTTGTC (site CGGCGTACTGA) | 2.31
